Results as given in US20260262643A1, “HERBICIDAL BENZOXAZINES” (FMC CORPORATION, priority 2022, published 2026).

Legend:
oat, wild [1] = test: Test C postemergence; type: in vivo, Avena fatua; conditions: 10 days, 0 to 100 scale (0 no effect, 100 complete control)
In short: (§1)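 Test material, in non-phytotoxic solvent with surfactant, was sprayed on the soil directly after seeding (preemergence) or on young plants of 2–10 cm with one to two leaves (postemergence). Greenhouse, 10 days; 0–100 visual control scale.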

barnyardgrass [2] = test: Test C preemergence; type: in vivo, Echinochloa crusgalli
In short: as §1

foxtail, giant [3] = test: Test C preemergence; type: in vivo, Setaria faberi
In short: as §1

oat, wild [4] = test: Test C preemergence; type: in vivo, Avena fatua
In short: as §1

soybean [5] = test: Test C postemergence; type: in vivo, Glycine max; conditions: 10 days, 0 to 100 scale (0 no effect, 100 complete control)
In short: as §1

ducksalad = test: Test D flooded paddy test; type: in vivo, Heteranthera limosa; conditions: 250 g ai/ha, applied to paddy water, visual rating after 13 to 14 days, scale 0 to 100 (0 no effect, 100 complete control)
In short: (§2)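 Visual ratings from 0, meaning no effect, to 100, meaning complete control, were assigned against untreated controls 13 to 14 days after compounds were added to the floodwater of pots kept 3 cm deep, with plants at the 2-leaf stage.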

ragweed [6] = test: Test C postemergence; type: in vivo, Ambrosia artemisiifolia; conditions: 10 days, 0 to 100 scale (0 no effect, 100 complete control)
In short: as §1

wheat [7] = test: Test C postemergence; type: in vivo, Triticum aestivum; conditions: 10 days, 0 to 100 scale (0 no effect, 100 complete control)
In short: as §1

pigweed, palmer [8] = test: Test C postemergence; type: in vivo, Amaranthus palmeri; conditions: 10 days, 0 to 100 scale (0 no effect, 100 complete control)
In short: as §1

kochia [9] = test: Test C preemergence; type: in vivo, Bassia scoparia
In short: as §1

blackgrass [10] = test: Test C preemergence; type: in vivo, Alopecurus myosuroides
In short: as §1

pigweed, palmer [11] = test: Test C preemergence; type: in vivo, Amaranthus palmeri
In short: as §1

rice = test: Test D flooded paddy test; type: in vivo, Oryza sativa; conditions: 250 g ai/ha, applied to paddy water, visual rating after 13 to 14 days, scale 0 to 100 (0 no effect, 100 complete control)
In short: as §2

blackgrass [12] = test: Test C postemergence; type: in vivo, Alopecurus myosuroides; conditions: 10 days, 0 to 100 scale (0 no effect, 100 complete control)
In short: as §1

ragweed [13] = test: Test C preemergence; type: in vivo, Ambrosia artemisiifolia
In short: as §1

soybean [14] = test: Test C preemergence; type: in vivo, Glycine max
In short: as §1

ryegrass, Italian [15] = test: Test C preemergence; type: in vivo, Lolium multiflorum
In short: as §1

corn [16] = test: Test C preemergence; type: in vivo, Zea mays
In short: as §1

barnyardgrass [17] = test: Test D flooded paddy test; type: in vivo, Echinochloa crus-galli; conditions: 250 g ai/ha, applied to paddy water, visual rating after 13 to 14 days, scale 0 to 100 (0 no effect, 100 complete control)
In short: as §2

kochia [18] = test: Test C postemergence; type: in vivo, Bassia scoparia; conditions: 10 days, 0 to 100 scale (0 no effect, 100 complete control)
In short: as §1

barnyardgrass [19] = test: Test C postemergence; type: in vivo, Echinochloa crusgalli; conditions: 10 days, 0 to 100 scale (0 no effect, 100 complete control)
In short: as §1

horseweed = test: Test C postemergence; type: in vivo, Erigeron canadensis; conditions: 10 days, 0 to 100 scale (0 no effect, 100 complete control)
In short: as §1

foxtail, giant [20] = test: Test C postemergence; type: in vivo, Setaria faberi; conditions: 10 days, 0 to 100 scale (0 no effect, 100 complete control)
In short: as §1

sedge, umbrella = test: Test D flooded paddy test; type: in vivo, Cyperus difformis; conditions: 250 g ai/ha, applied to paddy water, visual rating after 13 to 14 days, scale 0 to 100 (0 no effect, 100 complete control)
In short: as §2

corn [21] = test: Test C postemergence; type: in vivo, Zea mays; conditions: 10 days, 0 to 100 scale (0 no effect, 100 complete control)
In short: as §1

ryegrass, Italian [22] = test: Test C postemergence; type: in vivo, Lolium multiflorum; conditions: 10 days, 0 to 100 scale (0 no effect, 100 complete control)
In short: as §1

galium = test: Test C postemergence; type: in vivo, Galium aparine; conditions: 10 days, 0 to 100 scale (0 no effect, 100 complete control)
In short: as §1

wheat [23] = test: Test C preemergence; type: in vivo, Triticum aestivum
In short: as §1

[24] = 500 g ai/ha, preemergence, 0 to 100 scale (0 no effect, 100 complete control)
[25] = Preemergence, 125 g ai/ha, 0 to 100 scale, 0 no effect, 100 complete control

CCc1ncn(-c2cccc(C(=O)N3CC(C(F)(F)F)Oc4c(Cl)cccc43)c2)n1 (stereo not shown) [Compound 345]
50: Plant response rating, Kochia (kochia [9]; [25]) | Plant response rating, Blackgrass (blackgrass [12]; Postemergence, 125 g ai/ha)
10: Plant response rating, Oat, Wild (oat, wild [4]; [25]) | Plant response rating, Rice (Flood) (rice) | Plant response rating, Corn (corn [16]; [25]) | Wheat plant response rating (wheat [23]; [24])
100: Barnyardgrass plant response rating (barnyardgrass [2]; [24]) | Foxtail, Giant plant response rating (foxtail, giant [3]; [24]) | Plant response rating, Soybean (soybean [5]; 500 g ai/ha, postemergence) | Plant response rating, Soybean (soybean [5]; Postemergence, 125 g ai/ha) | Kochia plant response rating (kochia [9]; [24]) | Pigweed, Palmer plant response rating (pigweed, palmer [11]; [24]) | Plant response rating, Pigweed, Palmer (pigweed, palmer [11]; [25]) | Soybean plant response rating (soybean [14]; [24]) | Plant response rating, Galium (galium; 500 g ai/ha, postemergence) | Plant response rating, Galium (galium; Postemergence, 125 g ai/ha)
60: Plant response rating, Barnyardgrass (barnyardgrass [2]; [25]) | Plant response rating, Ragweed (ragweed [6]; 500 g ai/ha, postemergence) | Plant response rating, Pigweed, Palmer (pigweed, palmer [8]; Postemergence, 125 g ai/ha) | Plant response rating, Barnyardgrass (barnyardgrass [19]; 500 g ai/ha, postemergence) | Plant response rating, Foxtail, Giant (foxtail, giant [20]; Postemergence, 125 g ai/ha) | Plant response rating, Sedge, Umbrella (Flood) (sedge, umbrella) | Plant response rating, Ryegrass, Italian (ryegrass, Italian [22]; Postemergence, 125 g ai/ha)
90: Plant response rating, Foxtail, Giant (foxtail, giant [3]; [25]) | Blackgrass plant response rating (blackgrass [10]; [24]) | Plant response rating, Blackgrass (blackgrass [12]; 500 g ai/ha, postemergence) | Ryegrass, Italian plant response rating (ryegrass, Italian [15]; [24]) | Plant response rating, Kochia (kochia [18]; 500 g ai/ha, postemergence) | Plant response rating, Foxtail, Giant (foxtail, giant [20]; 500 g ai/ha, postemergence)
0: Ragweed plant response rating (ragweed [13]; [24]) | Plant response rating, Ragweed (ragweed [13]; [25]) | Plant response rating, Horseweed (horseweed; Postemergence, 125 g ai/ha) | Plant response rating, Wheat (wheat [23]; [25])
65: Plant response rating, Ducksalad (Flood) (ducksalad)
20: Plant response rating, Oat, Wild (oat, wild [1]; Postemergence, 125 g ai/ha) | Plant response rating, Wheat (wheat [7]; Postemergence, 125 g ai/ha)
30: Plant response rating, Oat, Wild (oat, wild [1]; 500 g ai/ha, postemergence) | Plant response rating, Wheat (wheat [7]; 500 g ai/ha, postemergence) | Plant response rating, Soybean (soybean [14]; [25]) | Corn plant response rating (corn [16]; [24]) | Plant response rating, Barnyardgrass (barnyardgrass [19]; Postemergence, 125 g ai/ha) | Plant response rating, Horseweed (horseweed; 500 g ai/ha, postemergence) | Plant response rating, Corn (corn [21]; Postemergence, 125 g ai/ha)
80: Oat, Wild plant response rating (oat, wild [4]; [24]) | Plant response rating, Pigweed, Palmer (pigweed, palmer [8]; 500 g ai/ha, postemergence) | Plant response rating, Blackgrass (blackgrass [10]; [25]) | Plant response rating, Ryegrass, Italian (ryegrass, Italian [15]; [25]) | Plant response rating, Kochia (kochia [18]; Postemergence, 125 g ai/ha) | Plant response rating, Corn (corn [21]; 500 g ai/ha, postemergence) | Plant response rating, Ryegrass, Italian (ryegrass, Italian [22]; 500 g ai/ha, postemergence)
40: Plant response rating, Ragweed (ragweed [6]; Postemergence, 125 g ai/ha) | Plant response rating, Barnyardgrass (Flood) (barnyardgrass [17])
